# Test results from patent US20230137849A1, “USE OF A COMPOUND OF THE DIURETICS CLASS FOR TREATING CANCER” (AZELEAD, priority 2017, published 2023).
# Where two headings read alike, the source gives them in different places.
# Columns and labels:
# 4T1 cells = type: cell-based, mouse; settings: FIG. 8
# Method: The cytotoxicity tests are carried out in cell culture in 96-well plates, on the 4T1 cell line. The cells are maintained in a DMEM culture medium supplemented with 10% fetal calf serum (control condition) or placed in the presence of an MTT solution (3-(4,5-dimethylthiazol-2-yl)-2,5-diphenyl tetrazolium bromide) at 1 mg/ml in DMEM medium supplemented with 10% fetal calf serum (100 μl per well). The cells are incubated at 37° C. and 5% CO2 for 4 hours. The reaction is stopped by the addition of 100 μl of a solution containing 10% of SDS and 0.01 M of HCl. The cells are placed in an incubator at 37° C. and 5% CO2 for 2 hours. The absorbance is measured between 570 and 590 nm. The negative control is performed on a well without cells, containing 200 μl of a 1 mg/ml solution of MTT diluted in DMEM culture medium supplemented with 10% fetal calf serum. The average of the measurements obtained is compared with the control wells: (average value of the compounds treated/average value of the controls)*100=% of the average value.
# The 4T1 cells are derived from tumors of the mammary gland in mice.
# In order to study the cytotoxic effects of althiazide in vitro, we analyze the cell death induced by treatment with althiazide by tetrazolium salt labeling MTT (3-(4,5-dimethylthiazol-2-yl)-2,5-diphenyltetrazolium bromide) on 4T1 cells. The amount of living cells in the well is assayed by spectrometry. The results are compared with those obtained after treatment with the control solution (FIG. 8). In this test, we observe a very low mortality of cells after treatment with althiazide (80% of living cells at the highest dose 100 μM). Cells treated with dasatinib have a much higher mortality rate, at much lower doses (80% live cells at the lowest 10 nM dose and 20% live cells at 100 μM).
# zebrafish embryo = settings: in vivo
# Method: The toxicity study is carried out over 72 hours. The embryos are treated at 25 hpf with the doses used for the test of chemical compounds of each of the compounds, in a 96-well plate, in a final volume of 100 μl of the embryonic growth medium. The embryos are incubated 72 h at 28° C. The medium is changed every 24 hours. The survival rate of embryos and the appearance of developmental defects are analyzed daily.
# At the same time, we analyzed the toxicity of althiazide after balancing with a solution containing althiazide at concentrations of 1 μM, 10 μM, 100 μM, 1000 μM for 24, 48 and 72 hours. The toxicity study was based on analysis of the percentage viability of the embryos after treatment. At concentrations of 1 μM, 10 μM and 100 μM, althiazide causes no toxicity even after 72 hours of treatment. A 50% toxicity is observed after treatment for 24 hours, the althiazide at the concentration of 1 mM.
smiles,measurement,setting,value
Cc1nc(Nc2ncc(C(=O)Nc3c(C)cccc3Cl)s2)cc(N2CCN(CCO)CC2)n1 [dasatinib],living cells (MTT),4T1 cells; highest dose 100 μM,20%
same,living cells (MTT),4T1 cells; lowest dose 10 nM,80%
same,toxicity on the embryo in comparison with althiazide doses,zebrafish embryo,very high toxicity
